Experimental data from patent publication US20120029040A1, “ANIMAL ECTOPARASITE-CONTROLLING AGENT” (priority 2010, published 2012).

Key:
[1] = tested on: ticks (Haemaphysalis longicornis); assay: Oral administration against mouse-infested ticks; type: in vivo; settings: 20 mg in 10 mL test solution at 10 mL per 1 kg body weight, 2 days after administration
Protocol: Oral Administration Against Mouse-Infested Ticks (Haemaphysalis longicornis)
The previous day before oral administration, 30 test ticks (Haemaphysalis longicornis, young ticks) were deposited on a mouse. Before the oral administration, uninfested ticks were removed.
The present hydrazide compound (1) (20 mg) was dissolved in dimethylformamide (680 mg), and thereto a corn oil was added to prepare a test solution (10 mL). Said test solution was orally administered to the mouse at the rate of 10 mL per 1 kg of the body weight of the mouse with a gastric sonde. To a control group, a 7% dimethylformamide/corn oil solution alone was orally administered. Each administration was repeated 3 times per group.
Two (2) days after the administration, the number of dead ticks was examined and the mortality was calculated by the following formula:
Mortality (%)=100×(number of dead ticks/infested ticks before oral administration)

[2] = tested on: ticks (Haemaphysalis longicornis); assay: Dropping application against dog-infested ticks; type: in vivo
Protocol: Dropping Application Against Dog-Infested Ticks (Haemaphysalis longicornis)
Each (0.375 or 1.5 g) of the present hydrazide compound (1) and Comparative compound (52) was dissolved in diethylene glycol monoethyl ether (6.0 g) to prepare a test solution. Said test solution was directly dropped on the skin of the neck and back of the dog while pushing aside fur thereon at a rate of 0.1 ml per 1 kg of the dog's body weight (dose amount: 5 or 20 mg/kg). This is referred to as a test group. On the other hand, diethylene glycol monoethyl ether alone was applied dropwise to a placebo group.
Twenty eight (28) days later, 100 test ticks were deposited on each dog. Two (2) days after the deposit, the number of living ticks, which were infesting the dogs, was examined. When the examination was completed, all infested ticks were removed from the dogs. The infestation rate and control rate were calculated by the following formulae: […]
Method of calculating infestation rate and control rate at 30 days after the application:
Infestation rate (%) at X days after application=(number of living ticks at X days/number of ticks deposited)×100
(§1) Control rate (%) at X days after application=(infestation rate of placebo group at X days−infestation rate of test group at X days)/infestation rate of placebo group at X days×100
(§2) In addition, if an infestation rate of a test group is higher than a placebo group, then the control rate is deemed to be 0%.

[3] = tested on: cat fleas (Ctenocephalides felis); assay: Oral administration against cat-infested cat fleas; type: in vivo; settings: oral with cat food, dose 20 mg/kg
Protocol: Oral Administration Against Cat-Infested Cat Fleas (Ctenocephalides felis)
Each of the present hydrazide compound (1) and Comparative compound (52) was mixed with a cat food, and orally administered to a cat in a dose amount of 20 mg per 1 kg of the cat's body weight. This is referred to as a test group. On the other hand, the cat food alone was fed to a placebo group.
Forty two (42) days later, 50 test fleas were deposited on each cat. Two (2) days after the deposit, the number of living fleas, which were infesting the cats, was examined. When the examination was completed, all infested fleas were removed from the cats. The infestation rate and control rate were calculated by the following formulae: […]
Method of calculating infestation rate and control rate at 44 days after the administration:
Infestation rate (%) at X days after administration=(number of living fleas at X days/number of fleas deposited)×100
Control rate (%) at X days after administration=(infestation rate of placebo group at X days−infestation rate of test group at X days)/infestation rate of placebo group at X days×100
as §2

[4] = tested on: cat fleas (Ctenocephalides felis); assay: Oral administration against mouse-infested cat fleas; type: in vivo; settings: 20 mg in 10 mL test solution at 10 mL per 1 kg body weight, fleas deposited after administration, 2 days later
Protocol: Oral Administration Against Mouse-Infested Cat Fleas (Ctenocephalides Felis)
The present hydrazide compound (1) (20 mg) was dissolved in dimethylformamide (680 mg), and thereto a corn oil was added to prepare a test solution (10 mL). Said test solution was orally administered to the mouse at a rate of 10 mL per 1 kg of the body weight of the mouse with a gastric sonde. To a control group, a 7% dimethylformamide/corn oil solution alone was orally administered. Each administration was repeated 3 times per group.
After the oral administration, 20 cat fleas were deposited on each mouse. Two (2) days later, the number of cat fleas was examined and the mortality was calculated by the following formula:
Mortality (%)=100×(number of dead cat fleas/number of cat fleas tested)

[5] = tested on: ticks (Haemaphysalis longicornis); assay: Dropping application against mouse-infested ticks; type: in vivo; settings: 0.1% w/v solution 200 μL dropwise to whole body surface, 2 days after application
Protocol: Dropping Application Against Mouse-Infested Ticks (Haemaphysalis longicornis)
The previous day before dropping application, 30 test ticks (Haemaphysalis longicornis, young ticks) were deposited on a mouse. Before the dropping application, uninfested ticks were removed.
The present hydrazide compound (1) (5 mg) was dissolved in a mixture (5 mL) of propylene carbonate and diethylene glycol monoethyl ether in equal amounts to prepare a 0.1% w/v solution. Said solution (200 μL) was applied dropwise to the whole body surface of a mouse with a pipette. To a control group, the mixture (200 μL) alone was applied. Each application was repeated 3 times per group.
Two (2) days after the application, the number of dead ticks was examined and the mortality was calculated by the following formula:
Mortality (%)=100×(number of dead ticks/infested ticks before dropping application)

[6] = tested on: cat fleas (Ctenocephalides felis); assay: Dropping application against cat-infested cat fleas; type: in vivo
Protocol: Dropping Application Against Cat-Infested Cat Fleas (Ctenocephalides felis)
The previous day before dropping application, 50 test fleas (cat flea adults) were deposited on a cat. Before the dropping application, infested fleas were counted.
Each (0.75 or 1.5 g) of the present hydrazide compound (1) and Comparative compound (52) was dissolved in diethylene glycol monoethyl ether (6.0 g) to prepare a test solution. Said test solution was directly dropped on the skin of the neck and back of the cat while pushing aside fur thereon on at a rate of 0.1 ml per 1 kg of the cat's body weight (dose amount: 10 or 20 mg/kg). This is referred to as a test group. On the other hand, diethylene glycol monoethyl ether alone was applied dropwise to a placebo group.
Two (2) days after the application, the number of living fleas, which were infesting the cats, was examined. When the examination was completed, all infested fleas were removed from the cats.
Twenty eight (28) days later, 50 test fleas were re-deposited on each cat. Two (2) days after the re-deposit, the number of living fleas, which were infesting the cats, was examined. When the examination was completed, all infested fleas were removed from the cats. The infestation rate and control rate were calculated by the following formulae: […]
(i) Method of calculating infestation rate and control rate at the initial stage (2 days) after the application:
Infestation rate (%) at X days after application=(number of living fleas at X days/number of living fleas before application)×100
Control rate (%) at X days after application=(infestation rate of test group before application−infestation rate of test group at X days)/infestation rate of test group before application×100
(ii) Method of calculating infestation rate and control rate at 30 days after the application:
Infestation rate (%) at X days after application=(number of living fleas at X days/number of fleas deposited)×100
as §1, §2

[7] = tested on: ticks (Haemaphysalis longicornis); assay: Oral administration against dog-infested ticks; type: in vivo; settings: dog (beagle), oral gelatin capsules
Protocol: Oral Administration Against Dog-Infested Ticks (Haemaphysalis longicornis)
The previous day before oral administration, 100 test ticks (Haemaphysalis longicornis, young ticks) were deposited on a dog (beagle). Before the oral administration, infested ticks were counted.
Each of the present hydrazide compound (1) and Comparative compound (52) was filled into gelatin capsules, and forcibly and orally administered to a dog in a dose amount of 5 mg or 20 mg per 1 kg of the dog's body weight. This is referred to as a test group. On the other hand, gelatin capsules alone was orally administered to a placebo group.
Two (2) days after the administration, the number of living ticks, which were infesting the dogs, was examined.
When the examination was completed, all infested ticks were removed from the dogs. The infestation rate and control rate were calculated by the following formulae: […]
Method of calculating infestation rate and control rate at the initial stage (2 days) after the administration:
Infestation rate (%) at X days after administration=(number of living ticks at X days/number of living ticks before administration)×100
Control rate (%) at X days after administration (infestation rate of test group before administration−infestation rate of test group at X days)/infestation rate of test group before administration×100
as §2

[8] = tested on: ticks (Haemaphysalis longicornis); assay: Pesticidal activity on ticks in filter paper test; settings: 48 h, 100 mg/m^2, non-blood-fed young ticks, 2 days
Protocol: Pesticidal Activity on Ticks (Haemaphysalis longicornis) in Filter Paper Test
Each (5 mg) of the present hydrazide compounds (1) and (2) was dissolved in acetone (10 mL), and this acetone solution (1 mL) was uniformly applied onto one side of a filter paper (TOYO No. 2; 5×10 cm; the surface area of the filter paper was 50 cm^2, and thus the amount of the present hydrazide compound applied was 100 mg/m^2). After drying, said filter paper was folded, and the both sides of the paper were clipped to form a bag. Into this bag, test ticks (Haemaphysalis longicornis, non-blood-fed young ticks, 10 ticks/group) were added, and the opening was clipped to seal the bag. Two (2) days later, the number of dead ticks was examined and the mortality was calculated by the following formula:
Mortality (%)=100×(number of dead ticks/number of ticks tested)

Compound	Mortality [1] [%]	Tick control rates (%) at 30 days after the application ([2]; dose 5 mg/kg) [%]	Tick control rates (%) at 30 days after the application ([2]; dose 20 mg/kg) [%]	Flea control rates (%) at 44 days after the administration [3] [%]	Mortality [4] [%]	Mortality [5] [%]	Flea control rates (%) at 2 days after the application ([6]; dose 10 mg/kg) [%]	Flea control rates (%) at 30 days after the application ([6]; dose 10 mg/kg) [%]	Flea control rates (%) at 2 days after the application ([6]; dose 20 mg/kg) [%]	Flea control rates (%) at 30 days after the application ([6]; dose 20 mg/kg) [%]	Tick control rates (%) at 2 days after the application ([7]; dose 5 mg/kg) [%]	Tick control rates (%) at 2 days after the application ([7]; dose 20 mg/kg) [%]	mortality at 100 mg/m2 [8] [%]
O=C(NNc1cc(C2=NOC(c3cc(Cl)cc(Cl)c3)(C(F)(F)F)C2)ccc1Cl)C1CC1 (stereo not drawn) [Compound (1), N′-{2-chloro-5-[5-(3,5-dichlorophenyl)-5-trifluoromethyl-4,5-dihydroisoxazol-3-yl]phenyl}cyclopropanecarbohydrazide]	≥ 90	100	100	94	≥ 90	≥ 70	92	84	96	94	100	100	–
CC(=O)NNc1cc(C2=NOC(c3cc(Cl)cc(Cl)c3)(C(F)(F)F)C2)ccc1Cl (stereo not drawn) [Comparative compound (52), N′-{5-[5-(3,5-dichlorophenyl)-5-trifluoromethyl-4,5-dihydroisoxazol-3-yl]-2-chlorophenyl}acetohydrazide, reference compound]	–	29	–	68	–	–	58	74	–	–	26	–	–
CN(NC(=O)C1CC1)c1cc(C2=NOC(c3cc(Cl)cc(Cl)c3)(C(F)(F)F)C2)ccc1Cl (stereo not drawn) [(2), N′-methyl-N′-{2-chloro-5-[5-(3,5-dichlorophenyl)-5-trifluoromethyl-4,5-dihydroisoxazol-3-yl]phenyl}cyclopropanecarbohydrazide]	–	–	–	–	–	–	–	–	–	–	–	–	≥ 90
